Test results from patent US20240216250A1, “COSMETIC PEPTIDES FOR IMPROVING SKIN REJUVENATION” (Lean Life Sciences, Inc., priority 2021, published 2024).
Ends that are not written are not given here.

Experiments:
[1] = system: 3T3-L1 cells; assay: Fructose, glucose and sucrose concentration in adipocytes (3T3-L1 cell lysates, Fructose Assay Kit); format: cell-based, mouse; conditions: Examples 1-2 to 1-11, same manner as Example 1-1
Protocol: Fructose concentration in 3T3-L1 cell lysates was measured using the Fructose Assay Kit (Abcam, Cambridge, UK). Six-well plates were seeded with 5×10^5 3T3-L1 cells/well one day before treating with 150 μM peptide. After 48 hours of treatment, the cells were harvested and fructose concentrations were assayed according to the manufacturer's instruction.
In order to confirm the effect of peptides on reducing the fructose level in adipocytes, three groups of adipocytes were prepared. Among the three groups, one group was treated with GGR, and another group was treated with RAK. The remaining group was not treated with any peptides and used as a control group. […] Fructose—an intermediate metabolite of glucose—was measured to further probe glucose metabolism. 3T3-L1 cells treated with either peptide had lower fructose concentrations than untreated cells (FIG. 1).
An additional group of adipocytes are treated with one of KGGRAKD, KGG, GGR, GRA, RAK, AKD, DKA, KAR, ARG, RGG, GGK, and DKARGGK in the same manner as Example 1-1.

[2] = system: 3T3-L1 mature adipocytes; assay: Lipid accumulation in 3T3-L1 adipocytes by Oil Red O staining, with cell count; format: cell-based, mouse; conditions: Oil Red O, microscopy, peptides at 100 μM, three times per week for three weeks (Day 21), vs non-treated control
Protocol: FIG. 3: Representative photomicrographs showing Oil Red O-stained mature adipocytes treated with peptides at 100 μM (Day 21). H: Quantitative analysis of the lipids accumulated in the adipocytes (Day 21). Control absorbance: 0.526 (Red line). I: Relative cell counts on day 21.
The effects of the minimal short peptides in blocking lipid accumulation in adipocytes were compared with their parent full-length peptide. After generating five different 3 amino acid fragments (KGG, GGR, GRA, RAK, and AKD) from the original ATS peptide (KGGRAKD (SEQ ID NO:1)), each peptide was administered to 3T3-L1 pre-adipocytes in five varying concentrations. Peptides were treated to the adipocytes three times per week for three weeks. Oil Red O staining was utilized to assess the lipid contents in mature adipocytes in culture. The morphological characteristics of 3T3-L1 mature adipocytes were observed by microscopy. […] Furthermore, the lipids were quantitatively analyzed.
The number of viable cells is counted prior to Oil Red O staining using Cell Counting Kit 8 (Dojindo). This cell viability study allows one to determine potential toxicities of the peptides and compensate for cell number variation-causing artifacts. Oil Red O is dissolved in isopropanol at […] to create a working solution. 12 ml of Oil Red O working solution is mixed with 8 ml dH2O and incubated for 10 minutes. This solution is then filtered using a 0.2 μm syringe filter. Adipocytes seeded on 96-well plates are washed with PBS twice. 10% formaldehyde is added for initial fixation and the plates are incubated for at least 30 minutes. The formaldehyde is removed and the cells are once again washed twice, this time with dH2O. 60% isopropanol is added to each well. The plates are incubated for 5 minutes. The isopropanol is removed from the wells and replaced with Oil Red O working solution. The plates are incubated for an additional 10 minutes. The Oil Red O solution is removed and washed four times with dH2O. Lastly, digital micrographs of the lipid droplets in adipocytes are taken using a light microscope. After the staining protocol, all plates are washed three times with 60% isopropanol. Each time, 5 minutes of gentle rocking was used. The Oil Red O is extracted with 100% isopropanol with gentle rocking for 5 minutes. 200 μl isopropanol per well is used as a background to measure absorbance at 492 nm using a BioTek microplate reader.

[3] = target: T1, prohibitin (Mus musculus, UniProt P67778); assay: ATS/prohibitin binding by ATS magnetic beads, immunoprecipitation and western blot; conditions: fractionated proteins from adipocytes captured on ATS magnetic beads, western blotting (A of FIG. 2)
T1 construct: Fractionated proteins isolated from adipocytes were incubated with the ATS magnetic beads; endogenous in cells; probably 3T3-L1
T1 sequence (P67778 2-272 limits assumed): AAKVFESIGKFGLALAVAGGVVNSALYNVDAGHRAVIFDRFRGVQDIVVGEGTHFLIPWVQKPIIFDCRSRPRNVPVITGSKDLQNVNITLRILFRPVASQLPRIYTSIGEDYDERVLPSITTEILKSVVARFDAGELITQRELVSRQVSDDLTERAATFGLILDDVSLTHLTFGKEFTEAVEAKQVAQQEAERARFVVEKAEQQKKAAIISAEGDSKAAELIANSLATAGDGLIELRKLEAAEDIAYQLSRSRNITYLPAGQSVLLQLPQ
Excerpt: FIG. 2: ATS/prohibitin binding determined by immunoprecipitation and western blot (A of FIG. 2). Location and degree of prohibitin expression in pre- or mature adipocytes. PM, plasma membrane; Cyt, Cytoplasm (B of FIG. 2). Confocal micrographs showing the location of prohibitin in mature- or pre-adipocytes (C of FIG. 2).
It was confirmed that prohibitin shifts its location to the cell membrane as adipogenesis progresses and ATS binds to prohibition. The ATS/prohibitin binding was verified in pre- or mature adipocytes (Won, Y. W. et al. Nat Mater 13, 1157-1164, (2014)). Fractionated proteins isolated from adipocytes were incubated with the ATS magnetic beads and the protein captured by ATS was identified by western blotting. […] Prohibitin is observed in several intracellular locations at varying expression levels depending on the degree of adipogenesis (Wang, P. et al. Cell Mol Life Sci 61, 2405-2417, (2004); Patel, N. et al. Proceedings of the National Academy of Sciences of the United States of America 107, 2503-2508, (2010)). The degree and location of prohibitin expression in pre- or mature adipocytes was determined. […] Confocal microscopy also verified the prohibitin expression on the cell membrane of mature adipocytes (C of FIG. 2). High-level prohibitin expression on the cell membrane of mature adipocytes is important to the ATS/prohibitin interaction.

[4] = system: 3T3-L1 fibroblast; assay: Collagen and fibronectin production in 3T3-L1 fibroblast by ELISA, with cell number; format: cell-based, mouse; conditions: across treatment groups
Excerpt: Effects of […] (SEQ ID NO: 5) on collagen and fibronectin production are validated in mouse fibroblast. A mouse fibroblast cell line is purchased from American Type Culture Collection (ATCC) to be used in all in vitro studies (3T3-L1 CL-173). The cells are first thawed into two T75 flasks per 1 million cell vial in basal medium I (BMI), which is composed of DMEM (4.5 g/l glucose) supplemented with 10% FBS and 1% Penicillin Streptomycin (P/S). The media is changed the following day, and on day 3, the cells are seeded in 96-well plates (200 μl/well). The peptide was administered to 3T3-L1 fibroblast in five varying concentrations. Collagen and fibronectin produced from the cell was assessed in the cell culture media 3 days after the peptide treatment by ELISA.

Binding of ATS to prohibitin [3] | Substance | Fructose concentration in adipocytes vs control group [1] | Number and size of lipid droplets in adipocytes [2] | Cell number at the end point (toxicity) [4]
specifically binds to prohibitin | KGGRAKD | significantly lower than the control group | smaller than those in the non-treated control | –
– | ACTGSTQHQGGGSESPLKRQG | – | – | almost the same across the treatment groups
